# Test results from publication PMC7822874, “Chemoprotective antimalarials identified through quantitative high-throughput screening of Plasmodium blood and liver stage parasites” (Scientific Reports, 2021).
# Several values for one entry are separate records, joined by “and”; a condition that tells them apart may be missing. Identical values can stand only once. Like-named read-outs stand apart in the source and are kept apart here.
# Tests used:
# [1] = tested on: P. berghei-ANKA-GFP-LucCON liver stage parasites in HepG2-A16-CD81EGFP cells; assay: P. berghei liver stage Pb-Luc assay, Method 1 (UCSD, 1536-well); type: cell-based, Plasmodium berghei; details: Method 1; for Max Resp (signal direction of the dose response): Decrease = decreasing P. berghei viability with dose, Increase = increasing signal, Inactive = no dose response
# [2] = tested on: T1, Plasmodium falciparum Dd2-attB-ScDHODH (transgenic line expressing yeast DHODH), asexual blood stages; assay: organism not typed; parameters: replicate k of 3 (each line is one of three independent assays; the three lines of one compound and parasite line follow each other); details: 72 h, n = 1; for AC50: read-out: Individual replicates / Log AC50 (converted)
# T1 construct: Dd2-attB-ScDHODH, the transgenic line that expresses yeast DHODH
# Procedure, shortened: (§1)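 Statistics: two-sided Student's t-test between parental and transgenic values, from three independent assays. The transgene encodes a fumarate-dependent DHODH from yeast, independent of the parasite mETC.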
# [3] = tested on: Plasmodium falciparum Dd2 asexual blood stage parasites; assay: microbe, parasite or virus in culture; parameters: species or system Plasmodium falciparum Dd2 in human erythrocytes; single determination (one 11-point concentration-response curve); details: Plasmodium falciparum, DD2, Erythrocyte, 72 h; read-out: AC50
# [4] = tested on: luciferase-expressing P. berghei liver stage parasites in HepG2 cells; assay: Inhibition of liver-stage development assay (ILSDA), Method 2 (WRAIR, 96-well); type: cell-based, Plasmodium berghei
# [5] = tested on: T2, Plasmodium falciparum Dd2-attB (parental line), asexual blood stages; assay: microbe, parasite or virus in culture; parameters: replicate k of 3 (each line is one of three independent assays; the three lines of one compound and parasite line follow each other); details: n = 1; for Individual replicates / Log AC50 (M): 72 h; for AC50: Plasmodium falciparum, DD2, 72 h, read-out: Individual replicates / Log AC50 (converted)
# T2 construct: Dd2-attB, the isogenic parental line
# Procedure, shortened: as §1
# [6] = tested on: T2, Plasmodium falciparum Dd2-attB (parental line), asexual blood stages; assay: microbe, parasite or virus in culture; parameters: species or system P. falciparum Dd2-attB in human erythrocytes; SYBR Green-I proliferation assay, Dd2-attB parental line, asexual blood stages; details: 72 h; for AC50: Plasmodium falciparum, DD2, Erythrocyte; for Calculated / Average Log AC50 (M): mean of replicates, inhibitor
# [7] = Hill fit, 50% of maximum activity response, read-out: AC50
# [8] = log10 of molar AC50 from Hill fit
# [9] = Plasmodium berghei, Hill fit, 50% of maximum activity response, read-out: AC50
# [10] = Plasmodium berghei, log10 of molar AC50 from Hill fit, read-out: Log AC50 (converted)
# [11] = read-out: Calculated / Average Log AC50 (M), mean of replicates, 72 h (converted)
Compound,Individual replicates / Log AC50 (M) [2],Individual replicates / Log AC50 (M) [5],AC50 [5],"AC50 [6, 11]",AC50 [2],other results
O=C1C(c2ccc(C(F)(F)F)cc2)=C(Nc2ccc(Cl)cc2)c2ccccc21 [NCGC00107304-01],-5.0986 Log AC50 (M) and -5.1486 Log AC50 (M) and -5.3986 Log AC50 (M),-6.0986 Log AC50 (M),0.564 µM,7.1e-07 M,,"Max Resp (signal direction of the dose response) [1]: Decrease; AC50 [1, 7]: 0.282 µM; Log AC50 (M) [1, 8]: -6.550 M; AC50 [1, 9]: 0.158 µM; AC50 [1, 10]: 0.158 µM; AC50 [3]: 1.5 µM; Max Resp (signal direction of the dose response) ([4]; Method 2, Decrease = decreasing P. berghei viability with dose, Increase = increasing signal, Inactive = no dose response): Inactive"
CC1CN(Cc2ccccc2)CCN1c1cnc2c(O)ccc(C(=O)O)c2c1 (centres unmarked) [NCGC00249384-01],,,14.2 µM,1.59e-05 M,17.8 µM,
O=C(NCCCCN1CCOCC1)c1cccc(-c2cc(O)c3ncccc3c2)c1 [NCGC00249385-01],-5.2486 Log AC50 (M) and -5.1486 Log AC50 (M) and -4.8486 Log AC50 (M),-5.1986 Log AC50 (M) and -4.8986 Log AC50 (M),6.33 µM,7.97e-06 M,,
O=C(O)CCNc1cc(N2CCc3ccccc3CC2)nc(-c2cccnc2)n1 [NCGC00351549-02],-4.8486 Log AC50 (M) (2×) and -4.7986 Log AC50 (M),-4.9986 Log AC50 (M) and -4.8486 Log AC50 (M),14.2 µM,,,Calculated / Average Log AC50 (M) [6]: -4.8986 M
CCNC(=O)Oc1cc(-c2cccc(C(=O)NCCCc3ccccc3)c2)cc2cccnc12 [NCGC00372508-01],-5.0486 Log AC50 (M),-5.1986 Log AC50 (M) and -4.7486 Log AC50 (M) and -5.0986 Log AC50 (M),,,6.33 µM,AC50 ([6]; read-out: Calculated / Average Log AC50 (M) (converted)): 9.65e-06 M
CCCOC(c1cc2nccc(C(=O)O)c2[nH]1)c1ccccc1Cl (centres unmarked) [NCGC00381656-01],-4.9486 Log AC50 (M),-5.0486 Log AC50 (M) and -4.7986 Log AC50 (M),7.97 µM,1.04e-05 M,15.9 µM,
O=C(O)c1ccncc1Nc1nn(CCN2CCC(F)(F)CC2)c2ccc(F)cc12 [NCGC00384162-01],,,15.9 µM,1.93e-05 M,17.8 µM,
O=[S+]([O-])(c1nc2ccccc2[nH]1)N(CCc1ccccc1)CCN1CCCCC1 [NCGC00389114-01],-5.6986 Log AC50 (M) and -5.2486 Log AC50 (M),-5.5486 Log AC50 (M) (2×) and -5.0486 Log AC50 (M),,4.15e-06 M,,
CCOC(=O)c1c2ccc(C(=O)N3CCOCC3)cc2n2ccccc12 [NCGC00390098-01],,-5.0486 Log AC50 (M),14.2 µM,1.26e-05 M,7.1 µM,
O=C(O)c1c2ccc(C(=O)N3CCOCC3)cc2n2ccccc12 [NCGC00390822-01],-5.5986 Log AC50 (M),-5.7986 Log AC50 (M) and -5.7486 Log AC50 (M),2.83 µM,2e-06 M,2.52 µM,
COC(=O)c1ccnc2cc(C(OCCN3CCC(F)(F)CC3)c3ccccc3Cl)[nH]c12 (centres unmarked) [NCGC00408945-01],,,10 µM,1.42e-05 M,15.9 µM,
CCOC(=O)c1ccnc(-c2ncn(C)c2-c2ccc(OC)cc2)c1 [NCGC00409816-01],-4.9486 Log AC50 (M) and -4.7986 Log AC50 (M),-5.1986 Log AC50 (M) and -4.8486 Log AC50 (M) and -5.0986 Log AC50 (M),,8.94e-06 M,7.97 µM,
COc1ccc(-c2c(-c3cc([N+](=O)[O-])ccn3)ncn2C)cc1 [NCGC00414991-01],-4.7986 Log AC50 (M),,14.2 µM,1.22e-05 M,8.94 µM,
O=C(Cc1ccc(O)cc1)N1CC(CNc2ccccc2)C2(C1)CN(c1ccccc1)C2 (centres unmarked) [NCGC00415859-01],-6.4873 Log AC50 (M) and -6.7373 Log AC50 (M) and -6.8873 Log AC50 (M),-6.8373 Log AC50 (M) and -6.9373 Log AC50 (M) and -6.5873 Log AC50 (M),,1.63e-07 M,,"Max Resp (signal direction of the dose response) [1]: Decrease; AC50 [1, 7]: 0.631 µM; Log AC50 (M) [1, 8]: -6.200 M; AC50 [1, 9]: 0.447 µM; AC50 [1, 10]: 0.447 µM; AC50 [3]: 0.243 µM; Activity direction (Decrease / Inactive) ([4]; P. berghei liver stage, Method 2, dose response): Inactive"
C=C[S+](=O)([O-])N1CCCN(c2cc(N(CCC(=O)O)[S+](=O)([O-])C=C)nc(-c3ccccn3)n2)CC1 [NCGC00420875-01],,,11.3 µM,1.53e-05 M,15.9 µM,
CCC(C)C1=N[S+](=O)([O-])c2cc(NC(=O)C3CC3)ccc2N1c1ccccc1 (centres unmarked) [NCGC00474156-01],-5.1986 Log AC50 (M) and -5.1486 Log AC50 (M),-5.9486 Log AC50 (M) and -5.5986 Log AC50 (M) (2×),,1.93e-06 M,8.94 µM,
CC(NCCN1CCCCC1)c1cnn(-c2cc(CO)ccn2)c1-c1cccc(-c2ccccc2)c1 (centres unmarked) [NCGC00479100-01],,,8.94 µM,3.99e-06 M,8.94 µM,
Oc1ncnc2sc(C(OCCN3CCCCC3)c3ccccc3Cl)cc12 (centres unmarked) [NCGC00481361-01],-5.0486 Log AC50 (M),-5.0986 Log AC50 (M),8.94 µM,1e-05 M,15.9 µM,
COC(=O)c1ccnc2cc(C(OCCN3CCCCC3)c3ccccc3Cl)sc12 (centres unmarked) [NCGC00481502-01],-4.7486 Log AC50 (M),-5.0486 Log AC50 (M) and -4.8486 Log AC50 (M),15.9 µM,1.26e-05 M,17.8 µM,
O=C(O)c1ccnc(-n2ncc(C(OCCN3CCCCC3)c3ccccc3Cl)c2-c2cccc(-c3ccccc3)c2)c1 (centres unmarked) [NCGC00481639-01],-4.9986 Log AC50 (M) and -5.1486 Log AC50 (M),-5.3986 Log AC50 (M) and -5.5986 Log AC50 (M),,,,Calculated / Average Log AC50 (M) [6]: -5.482 M
O=C(O)c1ccnc(-n2ncc(C(OCCN3CCCCC3)c3ccccc3Cl)c2-c2cccc(-c3ccccc3)c2)c1 (centres unmarked) [NCGC00481640-01],-4.7986 Log AC50 (M) and -4.8486 Log AC50 (M),-5.0486 Log AC50 (M) and -4.8986 Log AC50 (M) (2×),,,,Calculated / Average Log AC50 (M) [6]: -4.9486 M
CC(C)(C)OC(=O)NC1CCN(c2cc(-c3ccc(Cl)cc3)[nH]n2)C1 (centres unmarked) [NCGC00490648-01],,,11.3 µM,1.59e-05 M,10 µM,
CCN(CCN(C)C)C(=O)c1cc(OCc2ccc(Cl)cc2C)n(-c2cc(C#N)ccn2)n1 [NCGC00493248-01],-4.9486 Log AC50 (M) and -4.8486 Log AC50 (M),-5.0486 Log AC50 (M) and -5.0986 Log AC50 (M),15.9 µM,1.04e-05 M,11.3 µM,
CC(C)OC(=O)c1ccnc2cc(C(OCCN3CCCCC3)c3cccc(NC(=O)/C=C/CN(C)C)c3)sc12 (centres unmarked) [NCGC00493268-01],-5.4486 Log AC50 (M) and -5.1486 Log AC50 (M),-5.5986 Log AC50 (M) and -5.5486 Log AC50 (M),5.03 µM,3.3e-06 M,,
Cc1nn2c(c1-c1ccccc1Oc1ccccc1)N(Cc1ccccc1)CCC2 [NCGC00499717-01],-4.7986 Log AC50 (M),-4.9986 Log AC50 (M) and -4.7486 Log AC50 (M),15.9 µM,1.42e-05 M,15.9 µM,
O=C1c2ccccc2C(=O)C1c1ccc(C(F)(F)F)cc1 [NCGC00510065-01],-4.6986 Log AC50 (M) and -4.7486 Log AC50 (M),-4.7486 Log AC50 (M) (2×) and -5.0986 Log AC50 (M),,1.36e-05 M,17.8 µM,
CCCN1C(CC(C)C)=N[S+](=O)([O-])c2cc(NC(=O)c3ccccc3)ccc21 [NCGC00510420-01],-6.0486 Log AC50 (M) and -5.5486 Log AC50 (M) and -5.8486 Log AC50 (M),-6.5486 Log AC50 (M) and -6.1986 Log AC50 (M) and -6.2986 Log AC50 (M),,4.48e-07 M,,
O=C(Cc1ccc(O)cc1)N1CCC2(C1)CN(c1ccccc1)C2 [NCGC00510421-01],-4.7986 Log AC50 (M) and -4.7486 Log AC50 (M),-4.9486 Log AC50 (M),14.2 µM,1.26e-05 M,14.2 µM,
